Biological target: T1, CDC25B (Homo sapiens, UniProt P30305)
T1 sequence (P30305 431-538 limits assumed): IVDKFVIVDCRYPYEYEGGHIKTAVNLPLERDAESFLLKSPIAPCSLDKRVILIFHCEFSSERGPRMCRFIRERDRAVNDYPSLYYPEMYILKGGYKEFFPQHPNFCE
Test: In vitro CDC25B enzyme inhibition assay
Format: biochemical

[Na+].[Na+].[Na+].[O]=[V]([O-])([O-])[O-] [Na3VO4]
CDC25B IC50: 0.13 ± 0.02 µg/mL

Source: publication PMC6130795 (ACS Omega, 2018)
